We go through 14 compounds from US20160039880A1 (priority 2012, published 2016).

Bounds are passed on as bounds.
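Throughout, for Ki: cis to trans isomerization of SUC-AAPF-pNA by 2 nM enzyme, read as absorbance at 330 nm over 300 s at 10 °C, catalytic rate corrected for uncatalyzed background.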

Sequence of Human recombinant cyclophilin A (Cyp A) (P62937 whole entry): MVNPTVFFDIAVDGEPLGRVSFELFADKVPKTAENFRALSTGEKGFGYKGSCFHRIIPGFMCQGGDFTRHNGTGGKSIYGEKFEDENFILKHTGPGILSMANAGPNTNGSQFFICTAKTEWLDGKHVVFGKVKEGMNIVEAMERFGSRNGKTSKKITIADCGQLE

Tested on in the first data set: not listed separately
Description: Water Solubility Assay (measured in pH 7.8 buffer).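 Note: precipitation onset detected as rise in absorbance at 650 nm across increasing concentrations, after shaking for 18 h, blank wells receiving DMSO only.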 The data set is classed as physicochemical. Particulars: 35 mM HEPES pH 7.8, 1% DMSO, 25 °C, 18 h; read-out: Water Solubility Assay, concentration at which the compound remains in solution.
Description: The aqueous solubility of a compound of Formula I in buffer (pH 7.8) was measured by recording the onset of precipitation of the compound as a function of increasing concentration. The onset of precipitation, if it occurred, was detected by an increase in absorbance at 650 nm.
Assay Buffer: 35 mM HEPES pH 7.8
Stock solutions of Control and Test Compounds: 10 mM in 100% DMSO
10 mM stock solutions of control and test compounds were prepared in 100% DMSO.
Assay buffer (247.5 μl) was placed into flat bottomed transparent 96-well plate. For blank samples DMSO (2.5 μl) was added. For test and control samples 2.5 μl of the appropriate DMSO dilution stocks were added to the appropriate well. All test and control compounds were performed in triplicate.
The plates were sealed with adhesive plate seal and shaken at 250 rpm at 25° C. for 18 h on a plate shaker.
After incubation the plate seals were taken off and any bubbles observed in wells removed. The plates were read on a SpectraMaxM5 with a 5 s pre-shake at 650 nm.
Data files were transferred to the appropriate worksheet and the solubility range of the compounds was calculated from the data.
Turning to `CC[C@H]1NC(=O)[C@@H]([C@H](O)[C@H](C)CCCC(=O)N2CCN(C)CC2)N(C)C(=O)[C@@H](C(C)C)N(C)C(=O)[C@@H](CC(C)C)N(C)C(=O)[C@@H](CC(C)C)N(C)C(=O)[C@H](C)NC(=O)[C@@H](C)NC(=O)[C@@H](CC(C)C)N(C)C(=O)[C@@H](C(C)C)NC(=O)[C@H](CC(C)C)N(C)C(=O)[C@@H](C)N(C)C1=O` [Compound T, [(5R,6R,7S)-6-hydroxy-5-methyl-7-(methylamino)-1-(4-methylpiperazin-1-yl)-1-oxo-octanoic acid]^1[(R)-methyl-Sar]^3 cyclosporin A], the solubility at 18 h is listed as over 100 µM.
`CC[C@H]1NC(=O)[C@@H]([C@H](O)[C@H](C)CCCC(=O)NCC2COCCO2)N(C)C(=O)[C@@H](C(C)C)N(C)C(=O)[C@@H](CC(C)C)N(C)C(=O)[C@@H](CC(C)C)N(C)C(=O)[C@H](C)NC(=O)[C@@H](C)NC(=O)[C@@H](CC(C)C)N(C)C(=O)[C@@H](C(C)C)NC(=O)[C@H](CC(C)C)N(C)C(=O)[C@@H](C)N(C)C1=O` (stereo partly shown) [Compound ZX]: the solubility at 18 h is over 100 µM.

A further data set addresses Human recombinant cyclophilin A (Cyp A) (Homo sapiens, UniProt P62937).
Experiment: not given
Details: not given
As to `CC[C@H]1NC(=O)[C@@H]([C@H](O)[C@H](C)CCCC(=O)N2CCN(C)CC2)N(C)C(=O)[C@@H](C(C)C)N(C)C(=O)[C@@H](CC(C)C)N(C)C(=O)[C@@H](CC(C)C)N(C)C(=O)[C@H](C)NC(=O)[C@@H](C)NC(=O)[C@@H](CC(C)C)N(C)C(=O)[C@@H](C(C)C)NC(=O)[C@H](CC(C)C)N(C)C(=O)[C@@H](C)N(C)C1=O` [Compound T, [(5R,6R,7S)-6-hydroxy-5-methyl-7-(methylamino)-1-(4-methylpiperazin-1-yl)-1-oxo-octanoic acid]^1[(R)-methyl-Sar]^3 cyclosporin A], the inhibitory constant (Ki) stood at 5 nM.
As to `CC[C@H]1NC(=O)[C@@H]([C@H](O)[C@H](C)CCCC(=O)NCC2COCCO2)N(C)C(=O)[C@@H](C(C)C)N(C)C(=O)[C@@H](CC(C)C)N(C)C(=O)[C@@H](CC(C)C)N(C)C(=O)[C@H](C)NC(=O)[C@@H](C)NC(=O)[C@@H](CC(C)C)N(C)C(=O)[C@@H](C(C)C)NC(=O)[C@H](CC(C)C)N(C)C(=O)[C@@H](C)N(C)C1=O` (stereo partly shown) [Compound ZX], the inhibition constant Ki is 2.3 nM.
The same measure, in the same setting: to `CC[C@H]1NC(=O)[C@@H]([C@H](O)[C@H](C)CCN2CCNC(=O)C2)N(C)C(=O)[C@@H](C(C)C)N(C)C(=O)[C@@H](CC(C)C)N(C)C(=O)[C@@H](CC(C)C)N(C)C(=O)[C@H](C)NC(=O)[C@@H](C)NC(=O)[C@@H](CC(C)C)N(C)C(=O)[C@@H](C(C)C)NC(=O)[C@H](CC(C)C)N(C)C(=O)CN(C)C1=O` [Compound NN] belongs 120 nM; to `CC[C@H]1NC(=O)[C@@H]([C@H](O)[C@H](C)CCN2CCNC(=O)C2)N(C)C(=O)[C@@H](C(C)C)N(C)C(=O)[C@@H](CC(C)C)N(C)C(=O)[C@@H](CC(C)C)N(C)C(=O)[C@H](C)NC(=O)[C@@H](C)NC(=O)[C@@H](CC(C)C)N(C)C(=O)[C@@H](C(C)C)NC(=O)[C@H](CC(C)C)N(C)C(=O)[C@@H](C)N(C)C1=O` [Compound N, [(3R,4R,5S)-4-hydroxy-3-methyl-5-(methylamino)-1-(N-3-piperazinone)-hexanoic acid]^1[(R)-Me-Sar]^3 cyclosporin A], 6.1 nM.
Same read-out and setting: the same measure for `CCC1NC(=O)C(C(O)C(C)CCCN2CCOCC2)N(C)C(=O)C(C(C)C)N(C)C(=O)C(CC(C)C)N(C)C(=O)C(CC(C)C)N(C)C(=O)C(C)NC(=O)C(C)NC(=O)C(CC(C)C)N(C)C(=O)C(C(C)C)NC(=O)C(CC(C)C)N(C)C(=O)CN(C)C1=O` [Compound EI, [(4R,5R,6S)-5-Hydroxy-4-methyl-6-(methylamino)-1-(morpholin-4-yl)-heptanoic acid]^1 cyclosporin A]: 14 nM; for `CC(C)CC1C(=O)NC(C(C)C)C(=O)N(C)C(CC(C)C)C(=O)NC(C)C(=O)NC(C)C(=O)N(C)C(CC(C)C)C(=O)N(C)C(CC(C)C)C(=O)N(C)C(C(C)C)C(=O)N(C)C(C(O)C(C)CCN2CCOCC2)C(=O)NC(C(C)C)C(=O)N(C)CC(=O)N1C` [Compound AN, [(3R,4R,5S)-4-(hydroxy-3-methyl-5-(methylamino)-1-N-morpholino-hexanoic acid]^1 cyclosporin D]: 15 nM.
Same read-out and setting: the same measure for `CC[C@H]1NC(=O)[C@@H]([C@H](O)[C@H](C)CCN2CCOCC2)N(C)C(=O)[C@@H](C(C)C)N(C)C(=O)[C@@H](CC(C)C)N(C)C(=O)[C@@H](CC(C)C)N(C)C(=O)[C@H](C)NC(=O)[C@@H](C)NC(=O)[C@@H](CC(C)C)N(C)C(=O)[C@@H](C(C)C)NC(=O)[C@H](CC(C)C)N(C)C(=O)[C@@H](C)N(C)C1=O` [Compound F, [(3R,4R,5S)-4-(hydroxy)-3-methyl-5-(methylamino)-1-(morpholin-4-yl)hexanoic acid]^1[(R)-Me-Sar]^3 cyclosporin A]: 4.5 nM; for `CC[C@H]1NC(=O)[C@@H]([C@H](O)[C@H](C)CCN2CCSCC2)N(C)C(=O)[C@@H](C(C)C)N(C)C(=O)[C@@H](CC(C)C)N(C)C(=O)[C@@H](CC(C)C)N(C)C(=O)[C@H](C)NC(=O)[C@@H](C)NC(=O)[C@@H](CC(C)C)N(C)C(=O)[C@@H](C(C)C)NC(=O)[C@H](CC(C)C)N(C)C(=O)[C@@H](C)N(C)C1=O` [Compound J, [(3R,4R,5S)-4-Hydroxy-3-methyl-5-(methylamino)-1-(thiomorpholino)-hexanoic acid]^1[(R)-Me-Sar]^3 cyclosporin A]: 3.7 nM; for `CCC1NC(=O)C(C(O)C(C)CCNCCc2c[nH]cn2)N(C)C(=O)C(C(C)C)N(C)C(=O)C(CC(C)C)N(C)C(=O)C(CC(C)C)N(C)C(=O)C(C)NC(=O)C(C)NC(=O)C(CC(C)C)N(C)C(=O)C(C(C)C)NC(=O)C(CC(C)C)N(C)C(=O)C(C)N(C)C1=O` [Compound AK, [(3R,4R,5S)-4-Hydroxy-3-methyl-5-(methylamino)-1-(2-{1H-imidazol-4-yl}-ethylamino)-hexanoic acid]^1[(R)-methyl-Sar]^3 cyclosporin A]: 42 nM.
As for “[(3R,4R,5S)-4-Hydroxy-3-methyl-5-(methylamino)-1-2-(N,N-diethylamino)ethoxy-hexanoic acid]^1[(S)-thio-isopropyl-Sar]^3 cyclosporin A [Compound AL]”, the Ki was determined as 27 nM.
Same read-out and setting: to `CC[C@H]1NC(=O)[C@@H]([C@H](O)[C@H](C)CCN2CCN(C)CC2)N(C)C(=O)[C@@H](C(C)C)N(C)C(=O)[C@@H](CC(C)C)N(C)C(=O)[C@@H](CC(C)C)N(C)C(=O)[C@H](C)NC(=O)[C@@H](C)NC(=O)[C@@H](CC(C)C)N(C)C(=O)[C@@H](C(C)C)NC(=O)[C@H](CC(C)C)N(C)C(=O)CN(C)C1=O` [Compound LL] belongs 46 nM.
Same read-out and setting: the same measure for `CC[C@H]1NC(=O)[C@@H]([C@H](O)[C@H](C)CCN2CCS(=O)(=O)CC2)N(C)C(=O)[C@@H](C(C)C)N(C)C(=O)[C@@H](CC(C)C)N(C)C(=O)[C@@H](CC(C)C)N(C)C(=O)[C@H](C)NC(=O)[C@@H](C)NC(=O)[C@@H](CC(C)C)N(C)C(=O)[C@@H](C(C)C)NC(=O)[C@H](CC(C)C)N(C)C(=O)[C@@H](C)N(C)C1=O` [Compound P, [(3R,4R,5S)-4-Hydroxy-3-methyl-5-(methylamino)-1-(1,1-dioxo-thiomorpholino)-hexanoic acid]^1[(R)-Me-Sar]^3 cyclosporin A]: 3.2 nM.
Same read-out and setting: to `CC[C@H]1NC(=O)[C@@H]([C@H](O)[C@H](C)CCN2CCN(C)CC2)N(C)C(=O)[C@@H](C(C)C)N(C)C(=O)[C@@H](CC(C)C)N(C)C(=O)[C@@H](CC(C)C)N(C)C(=O)[C@H](C)NC(=O)[C@@H](C)NC(=O)[C@@H](CC(C)C)N(C)C(=O)[C@@H](C(C)C)NC(=O)[C@H](CC(C)C)N(C)C(=O)[C@@H](C)N(C)C1=O` [Compound L, [(3R,4R,5S)-4-hydroxy-3-methyl-5-(methylamino)-1-(4-methylpiperazino)-hexanoic acid]^1[(R)-Me-Sar]^3 cyclosporin A] belongs 7.3 nM; to `CC[C@H]1NC(=O)[C@@H]([C@H](O)[C@H](C)CCNCCOC)N(C)C(=O)[C@@H](C(C)C)N(C)C(=O)[C@@H](CC(C)C)N(C)C(=O)[C@@H](CC(C)C)N(C)C(=O)[C@H](C)NC(=O)[C@@H](C)NC(=O)[C@@H](CC(C)C)N(C)C(=O)[C@@H](C(C)C)NC(=O)[C@H](CC(C)C)N(C)C(=O)[C@@H](C)N(C)C1=O` [Compound AF, [(3R,4R,5S)-4-Hydroxy-3-methyl-5-(methylamino)-1-(2-methoxyethylamino)-hexanoic acid]^1[(R)-methyl-Sar]^3 cyclosporin A], 28 nM.
